Data: patent US12648924B2, “Prevention and treatment of effects of aging and age-associated disorders with ketone supplementation” (priority 2020, dated 2026)
“Also recorded” adds a separate entry of the source.

Assays:
Type in all cases: in vivo, VM/Dk mice
[1] = Blood metabolites after 4-day transition to standard diet supplemented with KDE (Experiment 4a); settings: for blood ketone levels: vs baseline
Excerpt: (§1) Food Intake and Ketone Diester Administration: Standard diet dry food (2018 Teklad Global 18% Protein Rodent Diet, Harlan) was mixed with deionized water (1 g dry food/mL deionized water) into a consistent paste and placed on a 100×15 mm dish. Food intake was tracked daily at the same time (7:00-9:00) and replaced every other day to ensure fresh food. Due to sinusoidal/oscillatory changes in food intake observed every other day (2-day pattern), a 4-day (2×2-day pattern) average was taken at EOL and baseline to calculate changes in anorexic symptoms. KDE was chemically synthesized with physical properties, preparation, and analysis described previously. For evaluation of KDE effect on anorexia, food intake was tracked daily at the same time (7:00-9:00). […] Consequently, upon VM-M3 inoculation, KDE+VM-M3 received ad libitum 0% KDE/weight day 1, 5% KDE day 2, 10% KDE day 3, 15% KDE day 4, 20% KDE day 5, 25% KDE day 6, and 30% KDE day 7 through 21 on top of HPSD. VM-M3 and Sham received HPSD ad libitum. As pilot work indicated potential water evaporation in food paste in ventilated cages, dehydration standard curve was calculated across various volumes of plated food (5, 10, 25.0, 50.0, 100 g/food) with and without KDE over a two-day period. Standard curve equation [water evaporated=0.2472 (original grams of water)+1.364] was used to correct for amount of dehydration prior to calculating caloric intake. For LPS experiments, 1×4 mL/kg KDE gavage or 1×4 mL/kg water gavage were administered for KDE+LPS and LPS-only, respectively. Ab libitum food intake was tracked daily during initial analysis with caloric restriction reported as the percent reduction in 24-hour caloric intake from pre- to post-LPS administration. Pair-feeding was conducted during subsequent analysis. […]
(§2) Metabolic Biomarkers: Blood glucose and R β-hydroxybutyrate were measured using Precision Xtra™ Blood Glucose & Ketone Monitoring System (Abbott Laboratories, Abbott Park, IL). Blood lactate concentration was measured using Lactate Plus Lactate Meter (Nova Biomedical). IGF-1 and Insulin were relabeled for blinded analysis and subsequently analyzed using Luminex 100 system (Luminex, Austin, TX) with R&D Systems Mouse 1-Plex Luminex Assay (R&D Systems, Minneapolis, MN) and Milliplex Mouse Multiplex Kit (Millipore, St. Charles, MO), respectively, using manufacturer's protocol.
(§3) To determine whether KDE could alter systemic metabolism, blood metabolites were measured at baseline following a standard diet and after a 4-day transition to a standard diet supplemented with 20% KDE, 25% KDE, or 30% KDE. […] To determine whether KDE could alter metabolism in CACS, blood ketones, glucose, and lactate were measured weekly. […] Thus, to determine if KDE altered tumor burden, in vivo bioluminescence imaging was analyzed weekly.

[2] = Tolerability of KDE incorporated in food, bodyweight and food intake (pilot work, Experiment 4b)
Excerpt: as §1, with “respectively.” for “respectively. Ab libitum food intake was tracked daily during initial analysis with caloric restriction reported as the percent reduction in 24-hour caloric intake from pre- to post-LPS administration. Pair-feeding was conducted during subsequent analysis.”
as §3

[3] = Blood glucose and ketones after single KDE gavage at various dosages (Experiment 5a); settings: vs timepoint 0
Procedure: as §2
Ketone Diester Mitigates Bodyweight Loss and Comorbidities in Inflammation-Induced Atrophy: Reductions in anorexia, tumor burden, and skeletal muscle atrophy all present ideal outcomes in the clinical environment of CACS. It should be noted, however, that altered anorexia and tumor burden can confound interpretation of the direct effects of the KDE on skeletal muscle atrophy. […] Due to the rapid nature of LPS-induced atrophy, various dosages of KDE were gavaged to determine their ability to rapidly shift systemic metabolism. […] To determine KDE's effect on cancer-independent catabolism, a maximal non-fatal LPS dose (10 mg/kg) was administered, followed by a single 4 mL/kg water (LPS) or KDE (KDE+LPS) gavage. KDE attenuated bodyweight loss 47% within the first 24 hours post-LPS administration (FIG. 7B).

[4] = KDE in LPS-induced atrophy, pair-fed animals (Experiment 5c); settings: single 4 mL/kg KDE gavage after 10 mg/kg LPS, 1 day post LPS, vs LPS group

SMILES: CC(=O)CC(=O)OCCC(C)OC(=O)CC(C)=O (stereo not drawn) [KDE, R/S 1,3-butanediol acetoacetate diester]
- blood ketone levels ([1]; 20% KDE in standard diet, 4-day transition): significant elevations
- blood ketone levels ([1]; 30% KDE in standard diet, 4-day transition): significant elevations; also recorded: highest ketone elevations
- blood glucose levels ([1]; 30% KDE in standard diet, compared with 20% and 25% KDE): greatest reduction in glucose
- blood glucose levels ([1]; all KDE groups (20%, 25%, 30% KDE in standard diet), 4-day transition): significant reductions
- ad libitum food intake ([2]; 20-30% by weight KDE incorporated in standard diet, pilot work): reductions in ad libitum food intake
- tolerability as indicated by bodyweight maintenance ([2]; 30% KDE reached incrementally (5%/day) over 7 days): well-tolerated
- bodyweight across time ([2]; incremental incorporation 0-30% KDE/weight at 5% KDE/weight/day, highly palatable standard diet): did not result in changes in bodyweight across time
- blood glucose ([3]; 4 mL/kg KDE gavage): significant and rapid reductions
- blood ketones ([3]; 4 mL/kg KDE gavage): elevations in blood ketones
- blood glucose ([3]; 5 mL/kg KDE gavage): significant and rapid reductions
- blood ketones ([3]; 5 mL/kg KDE gavage): elevations in blood ketones
- reduction of bodyweight loss [4]: 28%
